US20150190456A1, “USE OF CASPASE 3 ACTIVITY AND ITS INHIBITORS” (THE REGENTS OF THE UNIVERSITY OF COLORADO, priority 2011, published 2015)

Assays:
[1] = test system: tumor cells; assay: Growth in mice of a small number of tumor cells pre-treated with PGE2; type: in vivo; conditions: about 1000 tumor cells treated with PGE2 versus non-treated cells
Experimental: (§1) Growth of Fluc-labeled tumor cells in vivo was followed through non-invasive bioluminescence imaging using the IVIS200 instrument (Caliper Life Sciences, Hopkinton, Mass). Mice to be imaged were injected with 150 mg/kg of D-luciferin (obtained from Caliper Life Sciences) intraperitoneally in 200 μl of PBS and then anesthetized with continuous flow of isofluorane. Imaging of the mice was carried out 10 minutes later. The time between injection and imaging were kept constant among different batches of mice.
(§2) Different approaches were used to establish tumor growth than traditionally adopted by other studies. In most of the studies by the present inventors, a very small number of Fluc-labeled tumor cells (500-1000 cells each) was injected either alone or together with other unlabeled cells (either tumor cells or fibroblast cells) that are either irradiated or un-irradiated. Tumor growth from these cells was monitored through the quantification of bioluminescence signals emitted from labeled tumor cells using IVIS200 instrument following manufacturer's instructions. In some cases, 500-1000 Fluc labeled tumor cells were injected into (7-9 mm in diameter) tumors that have been established from unlabeled tumor cells.

[2] = test system: 4T1 cells; assay: Growth of tumor cells injected intratumorally into established tumors in mice, 4T1; type: in vivo, mouse; conditions: indomethacin administration
Experimental: as §1
as §2, with “cells. […]” for “cells.”

[3] = test system: HCT116 cells; assay: Growth of tumor cells injected intratumorally into established tumors in mice, HCT116; type: in vivo, human; conditions: indomethacin administration
Experimental: as §1
as §2, with “cells. […]” for “cells.”

## CCCCC[C@H](O)/C=C/[C@H]1[C@H](O)CC(=O)[C@@H]1C/C=C\CCCC(=O)O [PGE2, prostaglandin E2]
[1]
  growth of treated tumor cells when injected into mice: grow at a faster pace than non-treated cells

## COc1ccc2c(c1)c(CC(=O)O)c(C)n2C(=O)c1ccc(Cl)cc1 [indomethacin]
[2]
  growth of intratumorally injected 4T1 cells: effectively suppressed growth
[3]
  growth of intratumorally injected HCT116 cells: effectively suppressed growth
